Reference: PMC10298530, “Synthesis and Anticancer Activity of A-Ring-Modified Derivatives of Dihydrobetulin” (International Journal of Molecular Sciences, 2023)
Where two headings read alike, the source gives them in different places.

How the values were obtained:
[1] = test system: RD TE32; assay: MTT cell viability assay, RD TE32; type: cell-based, human; conditions: for IC50: Homo sapiens; for Selectivity index (SI): ratio of IC50 values healthy (HEK293) / RD TE32
Text: (§1) Blokhin National Medical Research Center of Oncology (the Ministry of Health of the Russian Federation, Moscow).

[2] = test system: HCT116; assay: MTT cell viability assay, HCT116; type: cell-based, human; conditions: for IC50: Homo sapiens, HCT-116; for Selectivity index (SI): ratio of IC50 values healthy (HEK293) / HCT116
Text: as §1

[3] = test system: HEpG2; assay: MTT cell viability assay, HEpG2; type: cell-based, human; conditions: for IC50: Homo sapiens; for Selectivity index (SI): ratio of IC50 values healthy (HEK293) / HEpG2
Text: as §1

[4] = test system: A549; assay: MTT cell viability assay, A549; type: cell-based, human; conditions: for IC50: Homo sapiens; for Selectivity index (SI): ratio of IC50 values healthy (HEK293) / A549
Text: as §1

[5] = test system: MS; assay: MTT cell viability assay, MS; type: cell-based, human; conditions: for IC50: Homo sapiens; for Selectivity index (SI): ratio of IC50 values healthy (HEK293) / MS;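 on IC50 (mean ± SD): MS is a melanocyte cell line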
Text: as §1

[6] = test system: MCF-7; assay: MTT cell viability assay, MCF-7; type: cell-based, human; conditions: for IC50: Homo sapiens, MCF7; for Selectivity index (SI): ratio of IC50 values healthy (HEK293) / MCF-7
Text: as §1

[7] = test system: PC-3; assay: MTT cell viability assay, PC-3; type: cell-based, human; conditions: for IC50: Homo sapiens; for Selectivity index (SI): ratio of IC50 values healthy (HEK293) / PC-3
Text: as §1

[8] = test system: HBL-100; assay: MTT cell viability assay, HBL-100; type: cell-based, human; conditions: for IC50: Homo sapiens; for Selectivity index (SI): ratio of IC50 values healthy (HEK293) / HBL-100
Experimental: (§2) The cells were cultured in a humidified CO2 incubator (model 460-CE; Thermo Fisher Scientific, Waltham, MA, USA) at +37 °C and 5% CO2.
(§3) The percentage of the viable cells was calculated according to the following equation: cell viability (%) = 100 × (mean absorbance in the treatment group/mean absorbance in the control group). The results were expressed pictorially using Prism 6.0 (GraphPad Software, Boston, MA, USA).

[9] = test system: HEK293; assay: MTT cell viability assay, HEK293; type: cell-based; conditions: Homo sapiens
Text: as §1

[10] = test system: human cancer cell lines; assay: MTT assay, panel of cancer cell lines; conditions: for IC50: Homo sapiens, read-out: moderate activity (range); for cytotoxicity in the screening studies: MTT screening, Table S1
Experimental: In this study, the human embryonic kidney cell line HEK293 was used as the non-cancerous cell line.
To investigate the cytotoxic activity of the compounds under study, the MTT colorimetric assay [45] was performed. […] After 72 h, 20 μL of 5 mg/mL solution of MTT (PanEco, Moscow, Russia), in sterile phosphate-buffered saline (PBS; PanEco, Moscow, Russia), was added to each well and further incubated for 4 h. Then, the medium with the compounds was removed, and the formed formazan crystals were dissolved in 100 μL of DMSO. […] The IC50 values were determined from dose-dependent curves, using Prism 6.0 (GraphPad Software, Boston, MA, USA).

[11] = test system: HBL-100/Dox; assay: MTT cell viability assay, HBL-100/Dox; type: cell-based, human; conditions: for IC50: Homo sapiens; for Selectivity index (SI): ratio of IC50 values healthy (HEK293) / HBL-100/Dox
Experimental: as §2, §3

[12] = RD TE32, MTT, 72 h of treatment, read-out: IC50 Values (Mean ± SD)
[13] = HCT116, MTT, 72 h of treatment, read-out: IC50 Values (Mean ± SD)
[14] = HEpG2, MTT, 72 h of treatment, read-out: IC50 Values (Mean ± SD)
[15] = A549, MTT, 72 h of treatment, read-out: IC50 Values (Mean ± SD)
[16] = Table S1, A549, read-out: IC50 (mean ± SD)
[17] = MS, MTT, 72 h of treatment, read-out: IC50 Values (Mean ± SD)
[18] = MCF-7, MTT, 72 h of treatment, read-out: IC50 Values (Mean ± SD)
[19] = Table S1, MCF-7, read-out: IC50 (mean ± SD)
[20] = PC-3, MTT, 72 h of treatment, read-out: IC50 Values (Mean ± SD)
[21] = Table S1, PC-3, read-out: IC50 (mean ± SD)
[22] = HBL-100, MTT, 72 h of treatment, read-out: IC50 Values (Mean ± SD)
[23] = Table S1, HBL-100, read-out: IC50 (mean ± SD)
[24] = HEK293, MTT, 72 h of treatment, read-out: IC50 Values (Mean ± SD)
[25] = Table S1, HEK293, read-out: IC50 (mean ± SD)
[26] = HBL-100, 72 h, read-out: IC50 Values (Mean ± SD)
[27] = HBL-100, read-out: IC50 (mean ± SD)
[28] = Table S1, RD TE32, read-out: IC50 (mean ± SD)
[29] = Table S1, HCT116, read-out: IC50 (mean ± SD)
[30] = Table S1, HEpG2, read-out: IC50 (mean ± SD)
[31] = Table S1, MS, read-out: IC50 (mean ± SD)

CC(C)C1CC[C@]2(CO)CC[C@]3(C)C(CCC4[C@@]5(C)CC(C#N)=CC(=O)C5CC[C@]43C)C12 (stereo partly drawn) [compound 14, 2-Cyano-28-hydroxy-4-oxo-3,4-seco-3,23-dinor-2,24-cyclolup-2(24)-ene]
IC50 [1, 12]: 49.1 ± 1.4 µM
Selectivity index (SI) [1]: 1.58
IC50 [2, 13]: 49.9 ± 0.1 µM
Selectivity index (SI) [2]: 1.56
melting point: 121 °C
IC50 [3, 14]: > 100 µM
Selectivity index (SI) [3]: < 0.78
IC50 [4, 15]: 63.2 ± 1.4 µM
IC50 [4, 16]: 63.2 ± 1.42 µM
Selectivity index (SI) [4]: 1.23
IC50 [5, 17]: 69.1 ± 1 µM
Selectivity index (SI) [5]: 1.13
IC50 [6, 18]: 56.7 ± 3.7 µM
IC50 [6, 19]: 56.7 ± 3.72 µM
Selectivity index (SI) [6]: 1.37
IC50 [7, 20]: 28.3 ± 2.3 µM
IC50 [7, 21]: 28.3 ± 2.29 µM
Selectivity index (SI) [7]: 2.75
IC50 [8, 22]: 46.9 ± 2.2 µM
IC50 [8, 23]: 46.9 ± 2.22 µM
Selectivity index (SI) [8]: 1.66
IC50 [9, 24]: 77.8 ± 2.9 µM
IC50 [9, 25]: 77.8 ± 2.9 µM
IC50 [10]: 16 to 77.8 µM
cytotoxicity in the screening studies [10]: relatively weak or moderate cytotoxicity
IC50 [11, 26]: 54 ± 1.8 µM
IC50 [11, 27]: 54 ± 1.82 µM
Selectivity index (SI) [11]: 1.44

C=C1C[C@H](C#N)C[C@@]2(C)C1CC[C@]1(C)C2CCC2C3C(C(C)C)CC[C@]3(CO)CC[C@]21C (stereo partly drawn) [compound 12, 2-Cyano-28-hydroxy-3,4-seco-3-nor-2,24-cyclolup-4(23)-ene]
IC50 [1, 12]: 98.6 ± 2.3 µM
IC50 [1, 28]: 98.6 ± 2.33 µM
Selectivity index (SI) [1]: 0.78
IC50 [2, 13]: 51 ± 3.7 µM
IC50 [2, 29]: 51 ± 3.67 µM
Selectivity index (SI) [2]: 1.50
melting point: 185.1 °C
IC50 [3, 14]: > 100 µM
Selectivity index (SI) [3]: < 0.77
IC50 [4, 15]: 44.4 ± 2.4 µM
Selectivity index (SI) [4]: 1.72
IC50 [5, 17]: > 200 µM
Selectivity index (SI) [5]: < 0.38
IC50 [6, 18]: 64.2 ± 3 µM
IC50 [6, 19]: 64.2 ± 3.01 µM
Selectivity index (SI) [6]: 1.19
IC50 [7, 20]: 55.7 ± 4.9 µM
IC50 [7, 21]: 55.7 ± 4.89 µM
Selectivity index (SI) [7]: 1.37
IC50 [8, 22]: 36.6 ± 1.4 µM
IC50 [8, 23]: 36.6 ± 1.44 µM
Selectivity index (SI) [8]: 2.09
IC50 [9, 24]: 76.5 ± 2.5 µM
IC50 [9, 25]: 76.5 ± 2.49 µM
IC50 [10]: 16 to 77.8 µM
cytotoxicity in the screening studies [10]: relatively weak or moderate cytotoxicity
IC50 [11, 26]: 63 ± 1.9 µM
IC50 [11, 27]: 63 ± 1.92 µM
Selectivity index (SI) [11]: 1.21

COC(=O)[C@]12CCC(C(C)C)C1C1CCC3[C@@]4(C)C[C@@H](C#N)CC(=O)C4CC[C@@]3(C)[C@]1(C)CC2 (stereo partly drawn) [compound 17, 2-Cyano-4-oxo-3,4-seco-3,23-dinor-2,24-cyclolup-28-oic acid methyl ester]
IC50 [1, 28]: > 100 µM
IC50 [2, 29]: > 100 µM
melting point: 220.8 °C
IC50 [3, 30]: > 100 µM
IC50 [4, 16]: > 100 µM
IC50 [5, 31]: > 100 µM
IC50 [6, 19]: > 100 µM
IC50 [7, 21]: > 100 µM
IC50 [8, 23]: > 200 µM
IC50 [9, 25]: > 100 µM
IC50 [11, 27]: > 200 µM

C=C1C=C(C#N)C[C@@]2(C)C1CC[C@]1(C)C2CCC2C3C(C(C)C)CC[C@]3(CO)CC[C@]21C (stereo partly drawn) [compound 8, 2-Cyano-28-hydroxy-3,4-seco-3-nor-2,24-cyclolup-2(24),4(23)-diene]
IC50 [1, 28]: > 200 µM
IC50 [2, 29]: > 200 µM
melting point: 196.1 °C
IC50 [3, 30]: > 100 µM
IC50 [4, 16]: > 100 µM
IC50 [5, 31]: > 100 µM
IC50 [6, 19]: > 100 µM
IC50 [7, 21]: > 100 µM
IC50 [8, 23]: > 100 µM
IC50 [9, 25]: > 100 µM
IC50 [11, 27]: > 200 µM

COC(=O)[C@]12CCC(C(C)C)C1C1CCC3[C@@]4(C)CC(C#N)=CC(=O)C4CC[C@@]3(C)[C@]1(C)CC2 (stereo partly drawn) [compound 15, 2-Cyano-4-oxo-3,4-seco-3,23-dinor-2,24-cyclolup-2(24)-en-28-oic acid methyl ester]
IC50 [1, 28]: > 100 µM
IC50 [2, 29]: > 100 µM
melting point: 69.7 °C
IC50 [3, 30]: > 100 µM
IC50 [4, 16]: > 100 µM
IC50 [5, 31]: > 100 µM
IC50 [6, 19]: > 100 µM
IC50 [7, 21]: > 100 µM
IC50 [8, 23]: > 100 µM
IC50 [9, 25]: > 100 µM
IC50 [11, 27]: > 100 µM

CC1=C(C#N)C[C@@]2(C)C1CC[C@]1(C)C2CCC2C3C(C(C)C)CC[C@]3(CO)CC[C@]21C (stereo partly drawn) [compound 22, 2-Cyano-28-hydroxy-3,4-seco-3,23-dinor-2,4-cyclolup-2(4)-ene]
IC50 [1, 28]: 84.7 ± 3.68 µM
IC50 [2, 29]: 74.2 ± 2.56 µM
melting point: 184.2 °C
IC50 [3, 30]: > 100 µM
IC50 [4, 16]: > 200 µM
IC50 [5, 31]: > 100 µM
IC50 [6, 19]: 89.3 ± 3.01 µM
IC50 [7, 21]: 36.5 ± 1.31 µM
IC50 [8, 23]: > 100 µM
IC50 [9, 25]: > 100 µM
IC50 [11, 27]: > 100 µM

C=C1C[C@H](C#N)C[C@@]2(C)C1CC[C@]1(C)C2CCC2C3C(C(C)C)CC[C@]3(C(=O)OC)CC[C@]21C (stereo partly drawn) [compound 13, 2-Cyano-3,4-seco-3-nor-2,24-cyclolup-4(23)-en-28-oic acid methyl ester]
IC50 [1, 28]: > 100 µM
IC50 [2, 29]: > 100 µM
melting point: 177.7 °C
IC50 [3, 30]: > 100 µM
IC50 [4, 16]: > 100 µM
IC50 [5, 31]: > 100 µM
IC50 [6, 19]: > 100 µM
IC50 [7, 21]: > 100 µM
IC50 [8, 23]: > 100 µM
IC50 [9, 25]: > 200 µM
IC50 [11, 27]: > 200 µM

C=C(C=O)C1CC[C@]2(C)C(CCC3C4C(C(C)C)CC[C@]4(C(=O)OC)CC[C@]32C)[C@@]1(C)CCC#N (stereo partly drawn) [compound 5, 2-Cyano-3,4-seco-3-norlup-4(23)-en-24-al-28-oic acid methyl ester]
IC50 [1, 28]: > 100 µM
IC50 [2, 29]: > 200 µM
melting point: 97.3 °C
IC50 [3, 30]: > 100 µM
IC50 [4, 16]: > 100 µM
IC50 [5, 31]: > 100 µM
IC50 [6, 19]: > 200 µM
IC50 [7, 21]: > 100 µM
IC50 [8, 23]: > 200 µM
IC50 [9, 25]: > 200 µM
IC50 [11, 27]: > 100 µM
